Test system: 233499-124-R-J3-PDC complex spheroid viability, % test/control
Assay: Anticancer human tumor 233499-124-R-J3-PDC patient-derived colon adenocarcinoma cell line growth inhibition
Settings: for IC50: curve of first compound; for viability, T/C: stronger effect = lower value
Method in brief: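 Complex spheroids of tumor cells with HUVEC and human MSCs, exposed to iadademstat combined with other agents. Each agent tested in half-log steps from near clinical Cmax (else 10 microM top), DMSO ≤0.25%.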
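Also: spheroids exposed to agents for one week before readout.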

CC1(C)CCC(CN2CCN(c3ccc(C(=O)NS(=O)(=O)c4ccc(NCC5CCOCC5)c([N+](=O)[O-])c4)c(Oc4cnc5[nH]ccc5c4)c3)CC2)=C(c2ccc(Cl)cc2)C1 + NC1CC1c1ccc(-c2cccc(O)c2)cc1
IC50 (second compound 0.1 µM): 2680 nM
IC50 (second compound 0.316 µM): 2450 nM
IC50 (second compound 1 µM): 3180 nM
IC50 (second compound 3.16 µM): 2810 nM
IC50 (second compound 10 µM): 2270 nM
viability, T/C (second compound 0.1 µM, first compound 0.0316 µM): 84.1%
viability, T/C (second compound 0.1 µM, first compound 0.1 µM): 109%
viability, T/C (second compound 0.1 µM, first compound 0.316 µM): 113%
viability, T/C (second compound 0.1 µM, first compound 1 µM): 107%
viability, T/C (second compound 0.1 µM, first compound 3.16 µM): 41.1%
viability, T/C (second compound 0.1 µM, first compound 10 µM): 0.86%
viability, T/C (second compound 0.316 µM, first compound 0.0316 µM): 114%
viability, T/C (second compound 0.316 µM, first compound 0.1 µM): 102%
viability, T/C (second compound 0.316 µM, first compound 0.316 µM): 100%
viability, T/C (second compound 0.316 µM, first compound 1 µM): 111%
viability, T/C (second compound 0.316 µM, first compound 3.16 µM): 33.9%
viability, T/C (second compound 0.316 µM, first compound 10 µM): 0.83%
viability, T/C (second compound 1 µM, first compound 0.0316 µM): 88.7%
viability, T/C (second compound 1 µM, first compound 0.1 µM): 92%
viability, T/C (second compound 1 µM, first compound 0.316 µM): 97.8%
viability, T/C (second compound 1 µM, first compound 1 µM): 102%
viability, T/C (second compound 1 µM, first compound 3.16 µM): 50.2%
viability, T/C (second compound 1 µM, first compound 10 µM): 0.7%
viability, T/C (second compound 3.16 µM, first compound 0.0316 µM): 100%
viability, T/C (second compound 3.16 µM, first compound 0.1 µM): 97.1%
viability, T/C (second compound 3.16 µM, first compound 0.316 µM): 91.4%
viability, T/C (second compound 3.16 µM, first compound 1 µM): 99.3%
viability, T/C (second compound 3.16 µM, first compound 3.16 µM): 44.6%
viability, T/C (second compound 3.16 µM, first compound 10 µM): 0.57%
viability, T/C (second compound 10 µM, first compound 0.0316 µM): 76.7%
viability, T/C (second compound 10 µM, first compound 0.1 µM): 83.9%
viability, T/C (second compound 10 µM, first compound 0.316 µM): 72.9%
viability, T/C (second compound 10 µM, first compound 1 µM): 81.1%
viability, T/C (second compound 10 µM, first compound 3.16 µM): 38.5%
viability, T/C (second compound 10 µM, first compound 10 µM): 0.43%

CCN(c1cc(-c2ccc(CN3CCOCC3)cc2)cc(C(=O)NCc2c(C)cc(C)[nH]c2=O)c1C)C1CCOCC1 + NC1CC1c1ccc(-c2cccc(O)c2)cc1
IC50 (second compound 0.1 µM): > 3000 nM
IC50 (second compound 0.316 µM): > 3000 nM
IC50 (second compound 1 µM): 2500 nM
IC50 (second compound 3.16 µM): > 3000 nM
IC50 (second compound 10 µM): 1860 nM
viability, T/C (second compound 0.1 µM, first compound 0.00949 µM): 97.3%
viability, T/C (second compound 0.1 µM, first compound 0.03 µM): 99.1%
viability, T/C (second compound 0.1 µM, first compound 0.0949 µM): 111%
viability, T/C (second compound 0.1 µM, first compound 0.3 µM): 115%
viability, T/C (second compound 0.1 µM, first compound 0.949 µM): 98.4%
viability, T/C (second compound 0.1 µM, first compound 3 µM): 51.8%
viability, T/C (second compound 0.316 µM, first compound 0.00949 µM): 117%
viability, T/C (second compound 0.316 µM, first compound 0.03 µM): 124%
viability, T/C (second compound 0.316 µM, first compound 0.0949 µM): 112%
viability, T/C (second compound 0.316 µM, first compound 0.3 µM): 129%
viability, T/C (second compound 0.316 µM, first compound 0.949 µM): 98.5%
viability, T/C (second compound 0.316 µM, first compound 3 µM): 50.8%
viability, T/C (second compound 1 µM, first compound 0.00949 µM): 97%
viability, T/C (second compound 1 µM, first compound 0.03 µM): 99.7%
viability, T/C (second compound 1 µM, first compound 0.0949 µM): 93.7%
viability, T/C (second compound 1 µM, first compound 0.3 µM): 107%
viability, T/C (second compound 1 µM, first compound 0.949 µM): 85%
viability, T/C (second compound 1 µM, first compound 3 µM): 43.4%
viability, T/C (second compound 3.16 µM, first compound 0.00949 µM): 99%
viability, T/C (second compound 3.16 µM, first compound 0.03 µM): 105%
viability, T/C (second compound 3.16 µM, first compound 0.0949 µM): 90.5%
viability, T/C (second compound 3.16 µM, first compound 0.3 µM): 80.7%
viability, T/C (second compound 3.16 µM, first compound 0.949 µM): 77.2%
viability, T/C (second compound 3.16 µM, first compound 3 µM): 53.9%
viability, T/C (second compound 10 µM, first compound 0.00949 µM): 79.3%
viability, T/C (second compound 10 µM, first compound 0.03 µM): 88.6%
viability, T/C (second compound 10 µM, first compound 0.0949 µM): 84.7%
viability, T/C (second compound 10 µM, first compound 0.3 µM): 93.2%
viability, T/C (second compound 10 µM, first compound 0.949 µM): 65.8%
viability, T/C (second compound 10 µM, first compound 3 µM): 38.8%
